Assay results: US8202527B2, “Method of combating turf pests with a combination of imidacloprid and bifenthrin” (priority 2005, dated 2012)

Assays:
[1] = test system: southern chinch bugs (pyrethroid-resistant chinch bugs); test: Florida Study (a): St. Augustine grass lawns, chinch bug counts; format: in vivo, Blissus hirsutus; details: for number of southern chinch bugs per ft^2 (per 930 cm^2): bifenthrin 0.2 lb/A, imidacloprid 0.25 lb/A where applied
Procedure: (§1) The following tests were performed to show the efficacy of combinations containing imidacloprid and bifenthrin against pyrethroid-resistant chinch bugs (Blissus hirsutus).
St. Augustine grass lawns, were treated in the summer of 2005 with either bifenthrin at 0.2 lb/A (220 g/ha) or with one of two combination products containing imidacloprid at 0.25 lb/A (280 g/ha) plus bifenthrin at 0.2 lb/A (220 g/ha). At the time of application, populations of chinch bugs were very low. The grass was irrigated and mowed according to local agronomic practices. Because of poor efficacy, imidacloprid is not used commercially for this application and thus was not tested alone in this study.
The numbers of chinch bugs in the lawns were counted at 40 days after application (DAT). After this time period, lawns treated with the combination products containing imidacloprid and bifenthrin had no chinch bugs.

[2] = test system: pyrethroid-resistant chinch bugs (southern chinch bugs); test: Florida Study (b): seven St. Augustine grass lawns, chinch bug counts; format: in vivo, Blissus hirsutus
Procedure: as §1
(§2) Seven St. Augustine grass lawns were treated several times in the summer of 2005 with bifenthrin at 0.2 lb/A (220 g/ha), the highest registered dose of the most widely-used product used for control of southern chinch bugs in Florida.
In October of 2005 the lawns were sampled, and the average population of chinch bugs in each lawn was 571 bugs/ft^2 (i.e., 571 bugs per about 930 cm^2), an exceedingly heavy population. After this sampling was done, the seven lawns were treated with a soluble concentrate formulation of a product containing imidacloprid plus bifenthrin at 0.25 lb/A plus 0.2 lb/A (280 g/ha plus 220 g/ha). Six days after treatment, the lawns were again sampled, at which time an average of 6 chinch bugs/ft^2 (i.e., 6 bugs per about 930 cm^2) was observed.

[3] = test system: chinch bugs collected from Florida Study (b) lawns; test: University of Florida laboratory bioassay of bifenthrin susceptibility; format: in vivo, Blissus hirsutus; details: bugs sampled from the treated lawns
Procedure: as §2

[4] = test system: Japanese beetle (Popillia japonica); test: Japanese beetle choice test on treated and untreated turfgrass cores; format: in vivo; details: 4 days after infestation
Procedure: The following tests were performed to show the efficacy of combinations containing imidacloprid and bifenthrin against Japanese beetle eggs (Popillia japonica).
Turfgrass cores (6.4 cm in diameter, 7 cm deep) were set into tight-fitting paper cups. Four cores were arranged in an ABAB layout in cylindrical plastic cages (60 cm in diameter, 50 cm high) cages with lids that prevented any insects inside from escaping. The cages were sufficiently large to allow adult Japanese beetles to fly and/or crawl unimpeded from one core to another, thereby providing an experimental design that was an accurate measure of which type of turf (untreated or insecticide treated) the adult beetles preferred.
Tests were carried out using the following compositions compared to untreated controls: • Composition (1): Imidacloprid at 0.25 lb/A (about 280 g/ha) plus bifenthrin at 0.2 lb/A (about 220 g/ha) • Composition (2): Imidacloprid at 0.3 lb/A (about 340 g/ha)
Eight replicates of each paired comparison were tested. Gravid adult female Japanese beetles were collected from the field and eight females were placed in each cage. Tests were carried out at 25° C. and with 14 h photophase. One day after infestation, a piece of apple was added to the cage as a food/water source.
At 4 days after infestation, the numbers of adult beetles found in treated and untreated cores were counted. […]

Question: `Cc1c(COC(=O)[C@@H]2[C@H](/C=C(\Cl)C(F)(F)F)C2(C)C)cccc1-c1ccccc1` (racemic) [Bifenthrin, 2-methylbiphenyl-3-ylmethyl (Z)-(1RS,3RS)-3-(2-chloro-3,3,3-trifluoroprop-1-enyl)-2,2-dimethylcyclopropane-carboxylate] was tested. Which “number of southern chinch bugs per ft^2 (per 930 cm^2)” value ([1]; 0 DAT) did it give?
Answer: 0 per ft^2 (per 930 cm^2)

Question: What about the “number of southern chinch bugs per ft^2 (per 930 cm^2)” value ([1]; 40 DAT) of the same compound?
Answer: 250 per ft^2 (per 930 cm^2)

Question: And the “chinch bugs in the lawns (in words)” value ([1]; 40 days after application (DAT))?
Answer: economically damaging levels

Question: What about the “control of southern chinch bugs (in words)” value ([1]; overall conclusion from the table data) of the same compound?
Answer: not effective

Question: What about the “average population of chinch bugs in each lawn” value ([2]; October 2005, after several bifenthrin treatments at 0.2 lb/A, before the combination treatment) of the same compound?
Answer: 571 bugs/ft^2

Question: And the “control of southern chinch bugs (in words)” value ([2]; lawns treated several times in summer 2005 at 0.2 lb/A (220 g/ha))?
Answer: exceedingly poor

Question: And the “times less susceptible than a normal pyrethroid-susceptible population” value [3]?
Answer: 47 times

Question: With `O=[N+]([O-])NC1=NCCN1Cc1ccc(Cl)nc1` [Imidacloprid] as the compound, how does the “number of adult beetles found in treated cores” value ([4]; choice against untreated cores, imidacloprid 0.25 lb/A plus bifenthrin 0.2 lb/A, or imidacloprid alone 0.3 lb/A, 25° C.) read?
Answer: 3.8 beetles

Question: And the “beetle preference between treated and untreated turf (in words)” value ([4]; paired choice comparison)?
Answer: the beetles show preference
